The text below walks through data of patent publication US5430032A, “Benzopyrido piperidylidene compounds, compositions, methods of manufacture and methods of use” (Schering Corporation, priority 1994, dated 1995).

In assay [1] the test system is Histamine. Nature of the assay: Histamine-induced bronchospasm in guinea pigs (in vivo, oral). On the set-up: species or system guinea pig. Conditions: for effect on the histamine response, compared with the PAF response: both responses at similar doses, in words; for Agonist Bronchospasm (in vivo)-Oral, Histamine, Inhibition: 2 hours after dose, histamine 10 ug/kg i.v.

For assay [2], the system named is platelet-activating factor (PAF). The experiment in a line: Platelet aggregation assay (PAF-induced aggregation, human platelet-rich plasma). The assay is classed as cell-based. The settings on record: PAF-induced aggregation of human platelets, in vitro, read-out: PAF Antagonism (in vitro) IC50. The method, then: Platelet-activating factor (PAF) causes aggregation of platelets by a receptor-mediated mechanism. Therefore, PAF-induced platelet aggregation provides a simple and convenient assay to screen compounds for PAF antagonism. Human blood (50 mL) was collected from healthy male donors in an anticoagulant solution (5 mL) containing sodium citrate (3.8%) and dextrose (2%). Blood was centrifuged at 110×g for 15 min. and the supernatant platelet-rich plasma (PRP) carefully transferred into a polypropylene tube. Platelet-poor-plasma (PPP) was prepared by centrifuging PRP at 12,000×g for 2 min. (Beckman Microfuge B). PRP was used within 3 hr. of drawing the blood. PAF was dissolved in chloroform:methanol (1:1, v/v) at a concentration of 2 mg/mL and stored at -70° C. An aliquot of this solution was transferred to a polypropylene tube and dried under a flow of nitrogen gas. To the dried sample was added Hepes-saline-BSA (BSA=bovine serum albumen) buffer (25 mM Hepes, pH 7.4, […], 0.7 mM MgCl2 and 0.1% BSA) to obtain a 1 mM solution and sonicated for 5 min. in a bath sonicator. This stock solution was further diluted to appropriate concentrations in Hepes-saline-BSA buffer. Collagen (Sigma) and adenosine diphosphate (ADP) (Sigma) were purchased as solutions. Test compounds were initially dissolved in dimethyl sulfoxide (DMSO) at a concentration of 50 mM and then further diluted in Hepes-saline-BSA buffer to achieve appropriate concentrations.
When an aggregating agent such as PAF is added to PRP, platelets aggregate. An aggregometer quantifies this aggregation by measuring and comparing light (infra-red) transmission through PPP and PRP. Aggregation assays were performed using a dual-channel aggregometer (Model 440, Chrono-Log Corp., Havertown, Pa.). PRP (0.45 mL) in aggregometer cuvettes was continually stirred (37° C.). Solutions (50 μL) of test compounds or vehicle were added to the PRP and, after incubation for 2 min., 10-15 μl aliquots of PAF solution were added to achieve a final concentration of 1-5×10^-8 M. In different experiments the aggregatory response was kept within a set limit by varying the concentration of PAF. Incubations were continued until the increase in light transmission reached a maximum (usually 2 min.). This increase in light transmission reflecting platlet aggregation is transmitted to a computer by the Chrono-Log model 810 AGGRO/LINK interface. The AGGRO/LINK calculates the slope of transmission change, thus providing the rate of aggregation. Values for inhibition were calculated by comparing rates of aggregation obtained in the absence and the presence of the compound. For each experiment, a standard PAF antagonist such as 8-chloro-6,11-dihydro-11-(1-acetyl-4-piperidylidene)-5H-benzo[5,6]cyclohepta[1,2-b]pyridine was used as a positive control.
Compounds that inhibit PAF-induced aggregation were tested against several other aggregating agents including collagen (0.2 mg/mL) and ADP (2 μM). Compounds showing no activity against these latter agents were considered to be specific PAF antagonists.

For assay [3], the system named is PAF. The experiment in a line: PAF-induced bronchospasm in guinea pigs (in vivo, oral). On the set-up: species or system guinea pig. Conditions: for effect on the PAF response, compared with the histamine response: both responses at similar doses, in words; for Agonist Bronchospasm (in vivo)-Oral, PAF, Inhibition: 2 hours after dose, PAF 0.4 μg/kg i.v.

As for `CC(=O)N1CCC(=C2c3ccc(Cl)cc3CCc3cccnc32)CC1` [Compound 1], the “effect on the histamine response, compared with the PAF response” value in assay [1] is recorded as “there is an effect on both responses at similar doses”. Besides, the “Agonist Bronchospasm (in vivo)-Oral, Histamine, Inhibition” value in assay [1] (3 mg/kg) is recorded as 49%. For the same compound, the IC50 in assay [2] was determined as 600 nM. Further, the “effect on the PAF response, compared with the histamine response” value in assay [3] is reported as “there is an effect on both responses at similar doses”. Further, in assay [3] (5 mg/kg), the “Agonist Bronchospasm (in vivo)-Oral, PAF, Inhibition” value worked out at 49%.

Take `O=C(c1cc[n+]([O-])cc1)N1CCC(=C2c3ccc(Cl)cc3CCc3cccnc32)CC1` [Compound 2]: the “effect on the histamine response, compared with the PAF response” value in assay [1] is “there is an effect on both responses at similar doses”. Moreover, in assay [1] (3 mg/kg), the “Agonist Bronchospasm (in vivo)-Oral, Histamine, Inhibition” value came to 37%. The IC50 in assay [2] was found to be 200 nM. For the same compound, the “effect on the PAF response, compared with the histamine response” value in assay [3] was “there is an effect on both responses at similar doses”. In addition, the “Agonist Bronchospasm (in vivo)-Oral, PAF, Inhibition” value in assay [3] (3 mg/kg) stood at 93%.

Take `O=C(c1cc[n+]([O-])cc1)N1CCC(=C2c3ccc(Cl)cc3SCc3cccnc32)CC1` [Compound 3]: the “Agonist Bronchospasm (in vivo)-Oral, Histamine, Inhibition” value in assay [1] (10 mg/kg) was found to be 9%. The IC50 in assay [2] came to 40 nM. In addition, the “Agonist Bronchospasm (in vivo)-Oral, PAF, Inhibition” value in assay [3] (1 mg/kg) is 91%.

For the compound `O=C(c1cc[n+]([O-])cc1)N1CCN(C2c3ccc(Cl)cc3OCc3cccnc32)CC1` (stereo not shown) [Compound 4], the “Agonist Bronchospasm (in vivo)-Oral, Histamine, Inhibition” value in assay [1] (3 mg/kg) came to 5%. In addition, in assay [2], the IC50 came to 200 nM. Besides, the “Agonist Bronchospasm (in vivo)-Oral, PAF, Inhibition” value in assay [3] (1 mg/kg) turned out to be 68%.

Consider `O=C(c1cc[n+]([O-])cc1)N1CCN(C2c3ccc(Cl)cc3SCc3cccnc32)CC1` (stereo not shown) [Compound 5], for which the “Agonist Bronchospasm (in vivo)-Oral, Histamine, Inhibition” value in assay [1] (10 mg/kg) was 9%. The IC50 in assay [2] was found to be 300 nM. In assay [3] (1 mg/kg), the “Agonist Bronchospasm (in vivo)-Oral, PAF, Inhibition” value is 38%.

One may read the IC50 as the concentration that gives 50% inhibition.
